Data published in PubChem BioAssay (NCI).
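Five concentrations, 48 hours, 96-well plates. TGI marks complete inhibition of growth.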

Assays:
Experiment in all cases: DTP human tumour cell line panel, 48 h
[1] = tested on: SNB-75 CNS
[2] = tested on: RPMI-8226 leukemia
[3] = tested on: MDA-MB-231 breast
[4] = tested on: HOP-92 NSCLC
[5] = tested on: HL-60(TB) leukemia
[6] = tested on: EKVX NSCLC
[7] = tested on: HT29 colon
[8] = tested on: IGROV1 ovarian
[9] = tested on: MDA-MB-435
[10] = tested on: MOLT-4 leukemia
[11] = tested on: HCC-2998 colon
[12] = tested on: HOP-62 NSCLC
[13] = tested on: SK-OV-3 ovarian
[14] = tested on: COLO 205 colon
[15] = tested on: PC-3 prostate
[16] = tested on: HS 578T breast
[17] = tested on: SK-MEL-28 melanoma
[18] = tested on: SNB-19 CNS
[19] = tested on: NCI-H460 lung
[20] = tested on: SF-295 CNS
[21] = tested on: HCT-15 colon
[22] = tested on: OVCAR-4 ovarian
[23] = tested on: MALME-3M melanoma
[24] = tested on: A498 renal
[25] = tested on: HCT-116 colon
[26] = tested on: SF-268 CNS
[27] = tested on: DU-145 prostate
[28] = tested on: UACC-62 melanoma
[29] = tested on: K-562 leukemia
[30] = tested on: M14 melanoma
[31] = tested on: SN12C renal
[32] = tested on: T-47D breast
[33] = tested on: 786-0 renal
[34] = tested on: SR leukemia
[35] = tested on: OVCAR-3 ovarian
[36] = tested on: U251 CNS
[37] = tested on: A549 NSCLC
[38] = tested on: CAKI-1 renal
[39] = tested on: RXF 393 renal
[40] = tested on: TK-10 renal
[41] = tested on: NCI-H23 lung
[42] = tested on: SF-539 CNS
[43] = tested on: ACHN renal
[44] = tested on: UACC-257 melanoma
[45] = tested on: MDA-N
[46] = tested on: SK-MEL-2 melanoma
[47] = tested on: LOX IMVI melanoma
[48] = tested on: KM12 colon
[49] = tested on: UO-31 renal
[50] = tested on: OVCAR-8 ovarian
[51] = tested on: NCI/ADR-RES ovarian
[52] = tested on: NCI-H226 lung
[53] = tested on: MCF7 breast
[54] = tested on: OVCAR-5 ovarian
[55] = tested on: SW-620 colon
[56] = tested on: SK-MEL-5 melanoma
[57] = tested on: NCI-H522 lung
[58] = tested on: CCRF-CEM leukemia

Structure (SMILES): CSC(Cc1ccc2c(c1)Sc1ccccc1O2)=[N+]1CCOCC1
- TGI [1]: > 100 µM
- TGI [2]: > 100 µM
- TGI [3]: > 100 µM
- TGI [4]: > 100 µM
- TGI [5]: > 100 µM
- TGI [6]: > 100 µM
- TGI [7]: > 100 µM
- TGI [8]: > 100 µM
- TGI [9]: > 100 µM
- TGI [10]: > 100 µM
- TGI [11]: > 100 µM
- TGI [12]: > 100 µM
- TGI [13]: > 100 µM
- TGI [14]: > 100 µM
- TGI [15]: > 100 µM
- TGI [16]: 86.6 µM
- TGI [17]: > 100 µM
- TGI [18]: > 100 µM
- TGI [19]: > 100 µM
- TGI [20]: > 100 µM
- TGI [21]: > 100 µM
- TGI [22]: > 100 µM
- TGI [23]: 90.9 µM
- TGI [24]: > 100 µM
- TGI [25]: > 100 µM
- TGI [26]: > 100 µM
- TGI [27]: > 100 µM
- TGI [28]: > 100 µM
- TGI [29]: > 100 µM
- TGI [30]: > 100 µM
- TGI [31]: > 100 µM
- TGI [32]: > 100 µM
- TGI [33]: > 100 µM
- TGI [34]: 11.7 µM
- TGI [35]: > 100 µM
- TGI [36]: > 100 µM
- TGI [37]: > 100 µM
- TGI [38]: > 100 µM
- TGI [39]: > 100 µM
- TGI [40]: > 100 µM
- TGI [41]: > 100 µM
- TGI [42]: > 100 µM
- TGI [43]: > 100 µM
- TGI [44]: > 100 µM
- TGI [45]: > 100 µM
- TGI [46]: > 100 µM
- TGI [47]: > 100 µM
- TGI [48]: > 100 µM
- TGI [49]: > 100 µM
- TGI [50]: > 100 µM
- TGI [51]: > 100 µM
- TGI [52]: > 100 µM
- TGI [53]: > 100 µM
- TGI [54]: > 100 µM
- TGI [55]: > 100 µM

Structure (SMILES): CCOC(=O)c1c(SCc2ccccc2)nc2c3ccccc3ccn12
- TGI [1]: > 100 µM
- TGI [2]: > 100 µM
- TGI [3]: > 100 µM
- TGI [4]: 27.5 µM
- TGI [5]: > 100 µM
- TGI [6]: > 100 µM
- TGI [7]: > 100 µM
- TGI [8]: > 100 µM
- TGI [9]: > 100 µM
- TGI [10]: > 100 µM
- TGI [11]: > 100 µM
- TGI [12]: > 100 µM
- TGI [13]: > 100 µM
- TGI [14]: > 100 µM
- TGI [56]: > 100 µM
- TGI [15]: > 100 µM
- TGI [16]: 58.3 µM
- TGI [17]: > 100 µM
- TGI [19]: > 100 µM
- TGI [20]: > 100 µM
- TGI [21]: > 100 µM
- TGI [22]: > 100 µM
- TGI [23]: > 100 µM
- TGI [24]: > 100 µM
- TGI [25]: > 100 µM
- TGI [26]: > 100 µM
- TGI [27]: > 100 µM
- TGI [28]: > 100 µM
- TGI [29]: > 100 µM
- TGI [30]: > 100 µM
- TGI [57]: > 100 µM
- TGI [31]: > 100 µM
- TGI [32]: > 100 µM
- TGI [33]: > 100 µM
- TGI [34]: > 100 µM
- TGI [36]: > 100 µM
- TGI [37]: > 100 µM
- TGI [38]: > 100 µM
- TGI [39]: > 100 µM
- TGI [41]: > 100 µM
- TGI [42]: > 100 µM
- TGI [43]: > 100 µM
- TGI [44]: > 100 µM
- TGI [45]: > 100 µM
- TGI [46]: > 100 µM
- TGI [47]: > 100 µM
- TGI [48]: > 100 µM
- TGI [50]: > 100 µM
- TGI [51]: > 100 µM
- TGI [52]: > 100 µM
- TGI [53]: > 100 µM
- TGI [58]: > 100 µM
- TGI [54]: > 100 µM
- TGI [55]: > 100 µM

Structure (SMILES): CCCNC(=S)N=Nc1c(O)[nH]c2ccccc12
- TGI [1]: > 100 µM
- TGI [2]: > 100 µM
- TGI [3]: > 100 µM
- TGI [4]: > 100 µM
- TGI [5]: > 100 µM
- TGI [6]: > 100 µM
- TGI [7]: > 100 µM
- TGI [8]: > 100 µM
- TGI [9]: > 100 µM
- TGI [10]: > 100 µM
- TGI [11]: > 100 µM
- TGI [12]: > 100 µM
- TGI [13]: > 100 µM
- TGI [14]: > 100 µM
- TGI [56]: > 100 µM
- TGI [15]: > 100 µM
- TGI [16]: > 100 µM
- TGI [17]: > 100 µM
- TGI [18]: > 100 µM
- TGI [19]: > 100 µM
- TGI [20]: > 100 µM
- TGI [21]: > 100 µM
- TGI [22]: > 100 µM
- TGI [23]: > 100 µM
- TGI [24]: > 100 µM
- TGI [25]: > 100 µM
- TGI [26]: > 100 µM
- TGI [27]: > 100 µM
- TGI [28]: > 100 µM
- TGI [29]: > 100 µM
- TGI [30]: > 100 µM
- TGI [57]: > 100 µM
- TGI [31]: > 100 µM
- TGI [32]: > 100 µM
- TGI [33]: > 100 µM
- TGI [34]: > 100 µM
- TGI [35]: > 100 µM
- TGI [36]: > 100 µM
- TGI [37]: > 100 µM
- TGI [38]: > 100 µM
- TGI [39]: > 100 µM
- TGI [40]: > 100 µM
- TGI [41]: > 100 µM
- TGI [42]: > 100 µM
- TGI [43]: > 100 µM
- TGI [44]: > 100 µM
- TGI [45]: > 100 µM
- TGI [46]: > 100 µM
- TGI [47]: > 100 µM
- TGI [48]: > 100 µM
- TGI [49]: > 100 µM
- TGI [50]: > 100 µM
- TGI [51]: > 100 µM
- TGI [52]: > 100 µM
- TGI [53]: > 100 µM
- TGI [58]: > 100 µM
- TGI [54]: > 100 µM
- TGI [55]: > 100 µM
